Experimental data reported in patent US20260347409A1, “CHEMICALLY MODIFIED POLYPEPTIDE” (SUZHOU GLENKOL PHARMA TECHNOLOGY CO., LTD., priority 2023, published 2026).
Where a SMILES comes first, the peptide text is derived from it. Where no end group is shown, it is not given here. [ ]: non-standard residue; d: D form. The star is where a group is joined. pY = N[C@@H](Cc1ccc(OP(=O)(O)O)cc1)C(=O)O; NMeY = CN[C@@H](Cc1ccc(O)cc1)C(=O)O; Palmitoyl = CCCCCCCCCCCCCCCC(=O)*

Columns and labels:
[1] = Pharmacokinetic characteristics in rats after intravenous administration (plasma, LC-MS/MS); assay type: in vivo; conditions: SD rats, intravenous (tail vein), 10 mg/kg; for MRT inf: rat
Protocol: Experimental Example 2: Pharmacokinetic Characteristics of Various Compounds in Rats
Intravenous administration: Three SD rats per group were administered the compounds of Example 1, Example 2, Example 3, Example 6, Example 7, Example 17, and Example 19 via the tail vein, respectively, at a dose of 10 mg/kg. all SD rats were allowed free access to food and water after administration. Plasma was collected 3 min, 10 min, 30 min, 1 h, 2 h, 6 h, 10 h, and 24 h after administration, with 3 rats per time point.
Sample processing: Whole blood was anticoagulated with EDTA-K2. Within 30 minutes of collection, the blood was centrifuged at 3000 g for 10 minutes at 2-8 °C. After centrifugation, the separated plasma was transferred to new 1.5 mL centrifuge tubes and stored at −80 °C.
Analytical method: The concentrations of each compounds in rat plasma were determined by LC-MS/MS using Shimadzu LC30AD and AB Sciex QTRAP 6500+instruments. The relevant pharmacokinetic parameters after administration were calculated.

PC-12 cells = assay: Cell viability of PC-12 neural cells under glutamate stimulation (excitotoxic cell death model, propidium iodide/Hoechst staining); assay type: cell-based, rat; conditions: for Normalized cell viability (%): 10 nM compound, 30 min pretreatment, then glutamate stimulation 24 h, normalized to positive control MK-801
Protocol: 1.1. Culture of PC-12 Cell Line and Establishment of Excitotoxic Cell Death Model
PC-12 cells (a […] cell line derived from rat adrenal medulla) were cultured in DMEM/F12 complete medium until eaching 80-90% confluence. The cells were then digested, collected, resuspended, and seeded at density of 5×10^4 cells per well in a 24-well plate precoated with coverslips. Following 26 hours of cell culture, excitotoxic cell death was induced by glutamate stimulation. For model establishment: an appropriate amount of glutamate was weighed and dissolved in DMEM/F12 medium to prepare a stock solution. After filtration, the stock solution was diluted with culture medium and administered to the cells via medium replacement. The cells were further incubated for 24 hours after administration.
1.2 Administration of Small Molecules
Prior to glutamate modeling, cells incubated as described in the previous step were pretreated with 10 nM of the polypeptide compound according to the present application for 30 minutes, followed by glutamate stimulation.
1.3. Propidium Iodide Staining
Cells treated with the polypeptide compound according to the present application were stained with propidium iodide to assess cell death. After discarding the culture medium, the cells were washed with PBS, and propidium iodide/Hoechst was added. After incubating for 30 minutes, the cells were removed and the staining solution was discarded. After washing with PBS, the cells were fixed and mounted, and subjected to image acquisition under a fluorescence microscope. The number of propidium iodide-positive cells and Hoechst-positive cells in the acquired images was counted to calculate the cell viability. MK-801 was used as the positive control compound. The normalized cell viability was calculated using the following formula: (cell viability of the compound group −cell viability of the glutamate group)/(cell viability of the positive control group −cell viability of the glutamate group)×100%.
Based on the above dose-response studies of the compound, the inhibitory effects of different small-molecule compounds at the same dose (10 nM) against excitotoxic death in PC-12 neurons cells were further compared.
Based on this, the dose-response relationship of the neuroprotective effect of the polypeptide compounds according to the present application on PC-12 neural cells was analyzed.

Compound: CC(C)C[C@H](NC(=O)[C@H](CCCCN)NC(=O)[C@H](CC(N)=O)NC(=O)[C@H](CCCNC(=N)N)NC(=O)[C@H](CC(N)=O)NC(=O)[C@H](CCCCN)NC(=O)[C@H](CCCCN)NC(=O)[C@H](CCCNC(=N)N)NC(=O)[C@H](CCCNC(=N)N)NC(=O)[C@H](CCCNC(=N)N)NC(=O)[C@H](CCC(N)=O)NC(=O)[C@H](CCCNC(=N)N)NC(=O)[C@H](CCCNC(=N)N)NC(=O)[C@H](CCCCN)NC(=O)[C@H](CCCCN)NC(=O)[C@H](CCCNC(=N)N)NC(=O)CNC(=O)[C@@H](N)Cc1ccc(OP(=O)(O)O)cc1)C(=O)N[C@@H](CCCNC(=N)N)C(=O)N[C@@H](CCCNC(=N)N)C(=O)N[C@@H](CCC(N)=O)C(=O)N[C@@H](Cc1c[nH]cn1)C(=O)N[C@@H](CO)C(=O)N[C@@H](Cc1ccc(O)cc1)C(=O)O [Example 3] (H-[pY]GRKKRRQRRRKKNRNKLRRQHSY-OH)
- T1/2 [1]: 1.28 h
- Vss [1]: 7.90 L/kg
- MRT inf [1]: 1.71 h

Compound: CN[C@@H](Cc1ccc(O)cc1)C(=O)NCC(=O)N[C@@H](CCCNC(=N)N)C(=O)N[C@@H](CCCCN)C(=O)N[C@@H](CCCCN)C(=O)N[C@@H](CCCNC(=N)N)C(=O)N[C@@H](CCCNC(=N)N)C(=O)N[C@@H](CCC(N)=O)C(=O)N[C@@H](CCCNC(=N)N)C(=O)N[C@@H](CCCNC(=N)N)C(=O)N[C@@H](CCCNC(=N)N)C(=O)N[C@@H](CCCCN)C(=O)N[C@@H](CCCCN)C(=O)N[C@@H](CC(N)=O)C(=O)N[C@@H](CCCNC(=N)N)C(=O)N[C@@H](CC(N)=O)C(=O)N[C@@H](CCCCN)C(=O)N[C@@H](CC(C)C)C(=O)N[C@@H](CCCNC(=N)N)C(=O)N[C@@H](CCCNC(=N)N)C(=O)N[C@@H](CCC(N)=O)C(=O)N[C@@H](Cc1c[nH]cn1)C(=O)N[C@@H](CO)C(=O)N[C@@H](Cc1ccc(O)cc1)C(N)=O [Example 9] (H-[NMeY]GRKKRRQRRRKKNRNKLRRQHSY-NH2)
- Normalized cell viability (%) (PC-12 cells): 63.17%
- EC50 (PC-12 cells; dose-response relationship in promoting the viability of PC-12 neurons, glutamate stimulation): 4.83 nM

Compound: CCCCCCCCCCCCCCCC(=O)N[C@@H](Cc1ccc(O)cc1)C(=O)NCC(=O)N[C@@H](CCCNC(=N)N)C(=O)N[C@@H](CCCCN)C(=O)N[C@@H](CCCCN)C(=O)N[C@@H](CCCNC(=N)N)C(=O)N[C@@H](CCCNC(=N)N)C(=O)N[C@@H](CCC(N)=O)C(=O)N[C@@H](CCCNC(=N)N)C(=O)N[C@@H](CCCNC(=N)N)C(=O)N[C@@H](CCCNC(=N)N)C(=O)N[C@@H](CCCCN)C(=O)N[C@@H](CCCCN)C(=O)N[C@@H](CC(N)=O)C(=O)N[C@@H](CCCNC(=N)N)C(=O)N[C@@H](CC(N)=O)C(=O)N[C@@H](CCCCN)C(=O)N[C@@H](CC(C)C)C(=O)N[C@@H](CCCNC(=N)N)C(=O)N[C@@H](CCCNC(=N)N)C(=O)N[C@@H](CCC(N)=O)C(=O)N[C@@H](Cc1c[nH]cn1)C(=O)N[C@@H](CO)C(=O)N[C@@H](Cc1ccc(O)cc1)C(N)=O [Example 10] (Palmitoyl-YGRKKRRQRRRKKNRNKLRRQHSY-NH2)
- Normalized cell viability (%) (PC-12 cells): 49.46%

Compound: CCCCCCCCCCCCCCCC(=O)NCCOCCOCC(=O)NCCCC[C@H](NC(=O)[C@H](CCCNC(=N)N)NC(=O)[C@H](CCCNC(=N)N)NC(=O)[C@H](CCCNC(=N)N)NC(=O)[C@H](CCC(N)=O)NC(=O)[C@H](CCCNC(=N)N)NC(=O)[C@H](CCCNC(=N)N)NC(=O)[C@H](CCCCN)NC(=O)[C@H](CCCCN)NC(=O)[C@H](CCCNC(=N)N)NC(=O)CNC(=O)[C@@H](N)Cc1ccc(O)cc1)C(=O)N[C@@H](CCCCN)C(=O)N[C@@H](CC(N)=O)C(=O)N[C@@H](CCCNC(=N)N)C(=O)N[C@@H](CC(N)=O)C(=O)N[C@@H](CCCCN)C(=O)N[C@@H](CC(C)C)C(=O)N[C@@H](CCCNC(=N)N)C(=O)N[C@@H](CCCNC(=N)N)C(=O)N[C@@H](CCC(N)=O)C(=O)N[C@@H](Cc1c[nH]cn1)C(=O)N[C@@H](CO)C(=O)N[C@@H](Cc1ccc(O)cc1)C(=O)O [Example 14, YGRKKRRQRRRK(N-AEEA-Palmitic acid)KNRNKLRRQHSY]
- Normalized cell viability (%) (PC-12 cells): 84.14%

Compound: YGRKKRRERRRKKDRNKLRRQHSY [Example 17]
- T1/2 [1]: 1.66 h
- Vss [1]: 23.1 L/kg
- MRT inf [1]: 2.29 h
